Test results from US6706663B2, “Herbicidal 3-heterocyclic substituted benzisothiazole and benzisoxazole compounds” (Wyeth, priority 2000, dated 2004).

System: GLXMA (Soybean)
Assay: Postemergence herbicidal evaluation
Type: in vivo, Glycine max, (L.) Merr.
Conditions: for GLXMA herbicidal rating: postemergence
Method: In the tests, seedling plants are grown in jiffy flats for about two weeks. The test compounds are dispersed in 50/50 acetone/water mixtures containing 0.5% TWEEN® 20, a polyoxyethylene sorbitan monolaurate surfactant of Atlas Chemical Industries, in sufficient quantities to provide the equivalent of about 0.0040 kg to 1.000 kg per hectare of active compound when applied to the plants through a spray nozzle operating at 40 psi for a predetermined time. After spraying, the plants are placed on greenhouse benches and are cared for in accordance with conventional greenhouse procedures. From four to five weeks after treatment, the seedling plants are examined and rated according to the rating system set forth below. Where more than one test is involved for a given compound, the data are averaged.
Results of herbicide evaluation are expressed on a rating scale (0-9). The scale is based upon a visual observation of plant stand, vigor, malformation, size, chlorosis and overall plant appearance as compared with a control.

SMILES	GLXMA herbicidal rating (rate 0.0320 kg/ha)	GLXMA herbicidal rating (rate 0.0620 kg/ha)	Postemergence herbicidal rating, GLXMA (rate 0.0320 kg/ha)
Cn1c(C(F)(F)F)cc(=O)n(-c2cc3c(C4OCCO4)nsc3cc2F)c1=O [Compound 61, 3-[3-(1,3-dioxolan-2-yl)-6-fluoro-1,2-benzisothiazol-5-yl]-1-methyl-6-(trifluoromethyl)uracil]	8.5	8.5	–
Cc1ccsc1-c1nsc2ccc(-n3c(=O)cc(C(F)(F)F)n(C)c3=O)cc12 [Compound 4, 1-methyl-3-[3-(3-methyl-2-thienyl)-1,2-benzisothiazol-5-yl]-6-(trifluoromethyl)uracil]	–	–	9.0
